{"source": "patent US11390604B2", "about": "(Hoffmann-La Roche Inc., priority 2019, dated 2022)", "note": "Where a name gives a salt, the structure may show the parent alone.", "data": [{"tested_on": "Acinetobacter baumannii ATCC 17961", "test": "Antimicrobial susceptibility testing: 90% growth inhibitory concentration (IC90) determination", "assay_type": "cell-based", "settings": "ATCC17961, Acinetobacter baumannii ATCC 17961, Iso-Sensitest broth, read-out: ATCC 17961 IC90", "procedure,_shortened": "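Growth was followed kinetically by OD600 at 20-min intervals for 16 h at 35±2 °C, with ~5×10^5 CFU/ml in Iso-Sensitest broth. Compounds were tested as twofold dilutions (e.g. 50–0.097 μM final). The concentration giving 90% inhibition of log-phase growth was reported.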", "units": {"IC90": "nM"}, "values": [{"smiles": "Cn1c(-c2cn(C3CC3)nc2C(F)(F)F)cnc1C(=O)Nc1ccc(C(=O)N2CCN(C(=O)N3CC[C@@H](N)C3)CC2)c(Cl)c1", "note": "[Example 349, (R)-N-(4-(4-(3-aminopyrrolidine-1-carbonyl)piperazine-1-carbonyl)-3-chlorophenyl)-5-(1-cyclopropyl-3-(trifluoromethyl)-1H-pyrazol-4-yl)-1-methyl-1H-imidazole-2-carboxamide formate]", "IC90": 449}, {"smiles": "Cn1c(-c2cn(CC#N)nc2C(F)(F)F)cnc1C(=O)Nc1ccc(C(=O)N[C@H]2CC[C@@H](N)CC2)c(Cl)c1", "note": "[Example 351, N-[4-[(4-aminocyclohexyl)carbamoyl]-3-chlorophenyl]-5-[1-(cyanomethyl)-3-(trifluoromethyl)pyrazol-4-yl]-1-methylimidazole-2-carboxamide;2,2,2-trifluoroacetic acid]", "IC90": 453}, {"smiles": "Cn1c(-c2cn(CCC3CC3)nc2C(F)(F)F)cnc1C(=O)Nc1ccc(C(=O)N2CCN(C(=O)C3CCNCC3)CC2)c(Cl)c1", "note": "[Example 352, N-(3-chloro-4-(4-(piperidine-4-carbonyl)piperazine-1-carbonyl)phenyl)-5-(1-(2-cyclopropylethyl)-3-(trifluoromethyl)-1H-pyrazol-4-yl)-1-methyl-1H-imidazole-2-carboxamide hydrochloride]", "IC90": 458}, {"smiles": "Cc1cc(NC(=O)c2ncc(-c3cn(CC(F)F)nc3C(F)(F)F)n2C)ccc1S(C)(=O)=NCCCN", "note": "(centres unmarked) [Example 353, N-[4-[N-(3-aminopropyl)-S-methyl-sulfonimidoyl]-3-methyl-phenyl]-5-[1-(2,2-difluoroethyl)-3-(trifluoromethyl)pyrazol-4-yl]-1-methyl-imidazole-2-carboxamide; formic acid]", "IC90": 462}, {"smiles": "CC1CN(C(=O)N[C@H]2C[C@@H](NC(=O)c3ccc(NC(=O)c4ncc(-c5cn(CC#N)nc5C(F)(F)F)n4C)cc3Cl)C2)CCN1", "note": "(some centres unmarked) [Example 354, N-[3-[[2-chloro-4-[[5-[1-(cyanomethyl)-3-(trifluoromethyl)pyrazol-4-yl]-1-methyl-imidazole-2-carbonyl]amino]benzoyl]amino]cyclobutyl]-3-methyl-piperazine-1-carboxamide; formic acid]", "IC90": 463}, {"smiles": "Cn1c(-c2cn(CC#N)nc2C(F)(F)F)cnc1C(=O)Nc1ccc(C(=O)N2CCN(C(=O)[C@H]3C[C@H](N)C3)CC2)c(Cl)c1", "note": "[Example 355, N-[4-[4-(3-aminocyclobutanecarbonyl)piper-azine-1-carbonyl]-3-chlorophenyl]-5-[1-(cyanomethyl)-3-(trifluoromethyl)pyrazol-4-yl]-1-methylimidazole-2-carboxamide;trihydrochloride]", "IC90": 464}, {"smiles": "CCc1cc(NC(=O)c2ncc(-c3cn(CC(F)F)nc3C(F)(F)F)n2C)ccc1C(=O)NCCCCCN", "note": "[Example 356, N-(4-((5-aminopentyl)carbamoyl)-3-ethylphenyl)-5-(1-(2,2-difluoroethyl)-3-(trifluoromethyl)-1H-pyrazol-4-yl)-1-methyl-1H-imidazole-2-carboxamide hydrochloride]", "IC90": 466}, {"smiles": "CN(C)CCN(C)C1CCN(C(=O)c2ccc(NC(=O)c3ncc(-c4cn(C5CC5)nc4C(F)(F)F)n3C)cc2Cl)CC1", "note": "[Example 357, N-(3-chloro-4-(4-((2-(dimethylamino)ethyl)(methyl)amino)piperidine-1-carbonyl)phenyl)-5-(1-cyclopropyl-3-(trifluoromethyl)-1H-pyrazol-4-yl)-1-methyl-1H-imidazole-2-carboxamide]", "IC90": 466}, {"smiles": "Cn1c(-c2cn(CC#N)nc2C(F)(F)F)cnc1C(=O)Nc1ccc(C(=O)N[C@H]2C[C@@H](NC(=O)N3CCC(CN)C3)C2)c(Cl)c1", "note": "(some centres unmarked) [Example 359, N-[4-[[3-[[3-(aminomethyl)pyrrolidine-1-carbonyl]amino]cyclobutyl]car-bamoyl]-3-chloro-phenyl]-5-[1-(cyanomethyl)-3-(trifluoromethyl)pyrazol-4-yl]-1-methyl-imidazole-2-carboxamide; formic acid]", "IC90": 467}, {"smiles": "CCn1cc(-c2cnc(C(=O)Nc3ccc(C(=O)N4CCC(CCC(C)(C)N(C)C)CC4)c(Cl)c3)n2C)c(C(F)(F)F)n1", "note": "[Example 360, N-(3-chloro-4-(4-(3-(dimethylamino)-3-methylbutyl)piperidine-1-carbonyl)phenyl)-5-(1-ethyl-3-(trifluoromethyl)-1H-pyrazol-4-yl)-1-methyl-1H-imidazole-2-carboxamide]", "IC90": 474}, {"smiles": "Cn1c(-c2cn(CC#N)nc2C(F)(F)F)cnc1C(=O)Nc1ccc(C(=O)N[C@H]2C[C@@H](NC(=O)N3CCCC3CN)C2)c(Cl)c1", "note": "(some centres unmarked) [Example 361, N-[4-[[3-[[2-(aminomethyl)pyrrolidine-1-carbonyl]amino]cyclobutyl]car-bamoyl]-3-chloro-phenyl]-5-[1-(cyanomethyl)-3-(trifluoromethyl)pyrazol-4-yl]-1-methyl-imidazole-2-carboxamide; formic acid]", "IC90": 479}, {"smiles": "Cn1c(-c2cn(C3CC3)nc2C(F)(F)F)cnc1C(=O)Nc1ccc(C(=O)N2CCN(C(=O)N3CCC(N)CC3)CC2)c(Cl)c1", "note": "[Example 362, N-(4-(4-(4-aminopiperidine-1-carbonyl)piperazine-1-carbonyl)-3-chlorophenyl)-5-(1-cyclopropyl-3-(trifluoromethyl)-1H-pyrazol-4-yl)-1-methyl-1H-imidazole-2-carboxamide formate]", "IC90": 480}, {"smiles": "Cn1c(-c2cn(CC(F)F)nc2C(F)(F)F)cnc1C(=O)Nc1ccc(C(=O)N2CCC23CN(C(=O)C2CCNCC2)C3)c(Cl)c1", "note": "[Example 363, N-(3-chloro-4-(6-(piperidine-4-carbonyl)-1,6-diazaspiro[3.3]heptane-1-carbonyl)phenyl)-5-(1-(2,2-difluoroethyl)-3-(trifluoromethyl)-1H-pyrazol-4-yl)-1-methyl-1H-imidazole-2-carboxamide formate]", "IC90": 481}, {"smiles": "Cn1c(-c2cn(CC(F)F)nc2C(F)F)cnc1C(=O)Nc1ccc(C(=O)N2CCN(C(=O)[C@H]3[C@@H]4CNC[C@@H]43)CC2)c(Cl)c1", "note": "[Example 364, N-(4-(4-((1R,5S,6r)-3-azabicyclo[3.1.0]hexane-6-carbonyl)piperazine-1-carbonyl)-3-chlorophenyl)-5-(1-(2,2-difluoroethyl)-3-(difluoromethyl)-1H-pyrazol-4-yl)-1-methyl-1H-imidazole-2-carboxamide formate]", "IC90": 482}, {"smiles": "CNC1CCN(C(=O)c2ccc(NC(=O)c3ncc(-c4cn(C5CC5)nc4C(F)(F)F)n3C)cc2Cl)CC1", "note": "[Example 366, N-(3-chloro-4-(4-(methylamino)piperidine-1-carbonyl)phenyl)-5-(1-cyclopropyl-3-(trifluoromethyl)-1H-pyrazol-4-yl)-1-methyl-1H-imidazole-2-carboxamide formate]", "IC90": 483}, {"smiles": "Cn1c(-c2cn(C3CC3)nc2C(F)(F)F)cnc1C(=O)Nc1ccc(C(=O)N2CCN(C(=O)[C@@H]3C[C@H](F)CN3)CC2)c(Cl)c1", "note": "[Example 367, N-(3-chloro-4-(4-((2S,4S)-4-fluoropyrrolidine-2-carbonyl)piperazine-1-carbonyl)phenyl)-5-(1-cyclopropyl-3-(trifluoromethyl)-1H-pyrazol-4-yl)-1-methyl-1H-imidazole-2-carboxamide hydrochloride]", "IC90": 484}, {"smiles": "CN(C(=O)c1ccc(NC(=O)c2ncc(-c3cn(C4CC4(F)F)nc3C(F)(F)F)n2C)cc1Cl)C1CCNCC1", "note": "(centres unmarked) [Example 368, N-(3-chloro-4-(methyl(piperidin-4-yl)carbamoyl)phenyl)-5-(1-(2,2-difluorocyclopropyl)-3-(trifluoromethyl)-1H-pyrazol-4-yl)-1-methyl-1H-imidazole-2-carboxamide formate]", "IC90": 484}, {"smiles": "Cn1c(-c2cn(CC3CC3)nc2C(F)(F)F)cnc1C(=O)Nc1ccc(C(=O)N2CCN(C(=O)N[C@@H]3CC[C@@H](N)C3)CC2)c(Cl)c1", "note": "[Example 369, N-((1R,3R)-3-aminocyclopentyl)-4-(2-chloro-4-(5-(1-(cyclopropylmethyl)-3-(trifluoromethyl)-1H-pyrazol-4-yl)-1-methyl-1H-imidazole-2-carboxamido)benzoyl)piperazine-1-carboxamide]", "IC90": 485}, {"smiles": "Cn1c(-c2cn(C3CC3)nc2C(F)(F)F)cnc1C(=O)Nc1ccc(C(=O)N2CCC(N3CCC(O)CC3)CC2)c(Cl)c1", "note": "[Example 370]", "IC90": 485}, {"smiles": "Cn1c(-c2cn(CC3CCC3)nc2C(F)(F)F)cnc1C(=O)Nc1ccc(C(=O)N2CCNCC2)c(Cl)c1", "note": "[Example 371, N-(3-chloro-4-(piperazine-1-carbonyl)phenyl)-5-(1-(cyclobutylmethyl)-3-(trifluoromethyl)-1H-pyrazol-4-yl)-1-methyl-1H-imidazole-2-carboxamide dihydrochloride]", "IC90": 485}, {"smiles": "Cn1c(-c2cn(CC#N)nc2C(F)(F)F)cnc1C(=O)Nc1ccc(C(=O)N[C@H]2CC[C@@H](NC(=O)[C@H]3C[C@H](N)C3)CC2)c(Cl)c1", "note": "[Example 372, rac-N-(4-(((1S,4s)-4-((1r,3R)-3-aminocyclobutane-1-carboxamido)cyclohexyl)car-bamoyl)-3-chlorophenyl)-5-(1-(cyanomethyl)-3-(trifluoromethyl)-1H-pyrazol-4-yl)-1-methyl-1H-imidazole-2-carboxamide 2,2,2-trifluoroacetate]", "IC90": 486}, {"smiles": "Cn1c(-c2cn(CC3CC3)nc2C(F)(F)F)cnc1C(=O)Nc1ccc(C(=O)NCC2CN(C(=O)N[C@H]3C[C@@H](N)C3)C2)c(Cl)c1", "note": "[Example 373, rac-N-(4-(((1-(((1s,3s)-3-aminocyclobutyl)carbamoyl)aze-tidin-3-yl)methyl)carbamoyl)-3-chlorophenyl)-5-(1-(cyclopropylmethyl)-3-(trifluoromethyl)-1H-pyrazol-4-yl)-1-methyl-1H-imidazole-2-carboxamide formate]", "IC90": 494}, {"smiles": "CCn1cc(-c2cnc(C(=O)Nc3ccc(C(=O)N4CCN(C(=O)C5CCNCC5)CC4)c(Br)c3)n2C)c(C(F)(F)F)n1", "note": "[Example 374, N-(3-bromo-4-(4-(piperidine-4-carbonyl)piperazine-1-carbonyl)phenyl)-5-(1-ethyl-3-(trifluoromethyl)-1H-pyrazol-4-yl)-1-methyl-1H-imidazole-2-carboxamide hydrochloride]", "IC90": 495}]}]}
